Assays:
[1] = GPCRScan assay: inhibition of GABA/PBR; parameters: species or system Rattus norvegicus; radioligand conc. used [nm] 0.3 – 2.0, parental cells brain tissue
[2] = biological target: 5-hydroxytryptamine receptor 7 (Homo sapiens) (UniProt P34969); assay: 5-HT7 (h) CEREP ligand profiling; settings: filed as agonist, Compound concentration 10.0 uM
[3] = biological target: Adenosine receptor A2a (Homo sapiens) (UniProt P29274); assay: A2A (h) CEREP ligand profiling; settings: filed as agonist, Compound concentration 10.0 uM
[4] = test system: Tyrosine-protein kinase ABL1 (Homo sapiens), P00519 [F317I]; settings: Compound concentration 1000.0 nM
[5] = test system: ALK tyrosine kinase receptor (Homo sapiens), Q9UM73 [C1156Y]; settings: Compound concentration 1000.0 nM
[6] = biological target: Mitogen-activated protein kinase kinase kinase 5 (Homo sapiens) (UniProt Q99683); settings: Compound concentration 1000.0 nM
[7] = biological target: Cytoplasmic tyrosine-protein kinase BMX (Homo sapiens) (UniProt P51813); settings: Compound concentration 1000.0 nM
[8] = biological target: Serine/threonine-protein kinase B-raf (Homo sapiens) (UniProt P15056); settings: Compound concentration 1000.0 nM
[9] = biological target: Cyclin-dependent kinase 11B (Homo sapiens) (UniProt P21127); settings: Compound concentration 1000.0 nM
[10] = biological target: Dual specificity protein kinase CLK4 (Homo sapiens) (UniProt Q9HAZ1); settings: Compound concentration 1000.0 nM
[11] = biological target: Death-associated protein kinase 1 (Homo sapiens) (UniProt P53355); settings: Compound concentration 1000.0 nM
[12] = biological target: Discoidin domain-containing receptor 2 (Homo sapiens) (UniProt Q16832); settings: Compound concentration 1000.0 nM
[13] = biological target: Serine/threonine-protein kinase 17A (Homo sapiens) (UniProt Q9UEE5); settings: Compound concentration 1000.0 nM
[14] = biological target: Receptor tyrosine-protein kinase erbB-4 (Homo sapiens) (UniProt Q15303); settings: Compound concentration 1000.0 nM
[15] = biological target: Focal adhesion kinase 1 (Homo sapiens) (UniProt Q05397); settings: Compound concentration 1000.0 nM
[16] = test system: eIF-2-alpha kinase GCN2 (Homo sapiens), Q9P2K8 [S808G]; settings: Compound concentration 1000.0 nM
[17] = biological target: Inhibitor of nuclear factor kappa-B kinase subunit alpha (Homo sapiens) (UniProt O15111); settings: Compound concentration 1000.0 nM
[18] = biological target: Interleukin-1 receptor-associated kinase 3 (Homo sapiens) (UniProt Q9Y616); settings: Compound concentration 1000.0 nM
[19] = biological target: Tyrosine-protein kinase JAK3 (Homo sapiens) (UniProt P52333); settings: Compound concentration 1000.0 nM
[20] = biological target: Mitogen-activated protein kinase 9 (Homo sapiens) (UniProt P45984); settings: Compound concentration 1000.0 nM
[21] = test system: Mast/stem cell growth factor receptor Kit (Homo sapiens), P10721 [D816H]; settings: Compound concentration 1000.0 nM
[22] = biological target: Leukocyte tyrosine kinase receptor (Homo sapiens) (UniProt P29376); settings: Compound concentration 1000.0 nM
[23] = biological target: MAP/microtubule affinity-regulating kinase 4 (Homo sapiens) (UniProt Q96L34); settings: Compound concentration 1000.0 nM
[24] = biological target: Dual specificity mitogen-activated protein kinase kinase 5 (Homo sapiens) (UniProt Q13163); settings: Compound concentration 1000.0 nM
[25] = biological target: MAP kinase-interacting serine/threonine-protein kinase 1 (Homo sapiens) (UniProt Q9BUB5); settings: Compound concentration 1000.0 nM
[26] = biological target: MAP kinase-interacting serine/threonine-protein kinase 2 (Homo sapiens) (UniProt Q9HBH9); settings: Compound concentration 1000.0 nM
[27] = biological target: Myosin light chain kinase (Homo sapiens) (UniProt Q32MK0); settings: Compound concentration 1000.0 nM
[28] = biological target: Serine/threonine-protein kinase Nek3 (Homo sapiens) (UniProt P51956); settings: Compound concentration 1000.0 nM
[29] = biological target: Serine/threonine-protein kinase Nek7 (Homo sapiens) (UniProt Q8TDX7); settings: Compound concentration 1000.0 nM
[30] = biological target: Serine/threonine-protein kinase NLK (Homo sapiens) (UniProt Q9UBE8); settings: Compound concentration 1000.0 nM
[31] = biological target: Mitogen-activated protein kinase 13 (Homo sapiens) (UniProt O15264); settings: Compound concentration 1000.0 nM
[32] = biological target: Phosphatidylinositol 4,5-bisphosphate 3-kinase catalytic subunit gamma isoform (Homo sapiens) (UniProt P48736); settings: Compound concentration 1000.0 nM
[33] = biological target: Ribosomal protein S6 kinase alpha-4 (Homo sapiens) (UniProt O75676); settings: Compound concentration 1000.0 nM
[34] = biological target: Ribosomal protein S6 kinase alpha-5 (Homo sapiens) (UniProt O75582); settings: Compound concentration 1000.0 nM
[35] = biological target: Serine/threonine-protein kinase Sgk3 (Homo sapiens) (UniProt Q96BR1); settings: Compound concentration 1000.0 nM
[36] = biological target: Serine/threonine-protein kinase SIK2 (Homo sapiens) (UniProt Q9H0K1); settings: Compound concentration 1000.0 nM
[37] = biological target: Vascular endothelial growth factor receptor 2 (Homo sapiens) (UniProt P35968); settings: Compound concentration 1000.0 nM
[38] = biological target: Mitogen-activated protein kinase kinase kinase 20 (Homo sapiens) (UniProt Q9NYL2); settings: Compound concentration 1000.0 nM
[39] = biological target: T1, Alpha-2B adrenergic receptor (Homo sapiens) (UniProt P18089); settings: Compound concentration 10.0 uM
T1 sequence (whole entry): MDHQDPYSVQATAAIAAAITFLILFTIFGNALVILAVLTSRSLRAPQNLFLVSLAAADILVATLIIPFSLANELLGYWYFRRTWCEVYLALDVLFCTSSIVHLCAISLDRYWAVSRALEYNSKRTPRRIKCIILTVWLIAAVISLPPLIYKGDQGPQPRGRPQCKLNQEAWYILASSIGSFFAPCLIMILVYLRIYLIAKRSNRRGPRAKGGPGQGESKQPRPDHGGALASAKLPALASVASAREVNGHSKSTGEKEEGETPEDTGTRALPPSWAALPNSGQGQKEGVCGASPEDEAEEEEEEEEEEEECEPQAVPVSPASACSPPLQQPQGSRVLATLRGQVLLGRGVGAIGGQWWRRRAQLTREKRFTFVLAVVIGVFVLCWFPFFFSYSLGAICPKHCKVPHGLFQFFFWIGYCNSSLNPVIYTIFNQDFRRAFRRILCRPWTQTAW

Chain of Serine/threonine-protein kinase Nek7 (Homo sapiens) (Q8TDX7 whole entry, looked up): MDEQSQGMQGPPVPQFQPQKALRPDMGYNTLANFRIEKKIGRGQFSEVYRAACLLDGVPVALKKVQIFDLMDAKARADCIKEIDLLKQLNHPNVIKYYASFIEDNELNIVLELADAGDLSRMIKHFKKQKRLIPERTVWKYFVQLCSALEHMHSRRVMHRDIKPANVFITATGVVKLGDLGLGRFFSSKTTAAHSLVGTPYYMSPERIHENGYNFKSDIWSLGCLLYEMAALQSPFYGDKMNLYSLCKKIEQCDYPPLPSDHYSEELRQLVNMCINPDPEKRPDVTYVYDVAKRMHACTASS
Chain of Mitogen-activated protein kinase kinase kinase 20 (Homo sapiens) (Q9NYL2 2-800 limits assumed): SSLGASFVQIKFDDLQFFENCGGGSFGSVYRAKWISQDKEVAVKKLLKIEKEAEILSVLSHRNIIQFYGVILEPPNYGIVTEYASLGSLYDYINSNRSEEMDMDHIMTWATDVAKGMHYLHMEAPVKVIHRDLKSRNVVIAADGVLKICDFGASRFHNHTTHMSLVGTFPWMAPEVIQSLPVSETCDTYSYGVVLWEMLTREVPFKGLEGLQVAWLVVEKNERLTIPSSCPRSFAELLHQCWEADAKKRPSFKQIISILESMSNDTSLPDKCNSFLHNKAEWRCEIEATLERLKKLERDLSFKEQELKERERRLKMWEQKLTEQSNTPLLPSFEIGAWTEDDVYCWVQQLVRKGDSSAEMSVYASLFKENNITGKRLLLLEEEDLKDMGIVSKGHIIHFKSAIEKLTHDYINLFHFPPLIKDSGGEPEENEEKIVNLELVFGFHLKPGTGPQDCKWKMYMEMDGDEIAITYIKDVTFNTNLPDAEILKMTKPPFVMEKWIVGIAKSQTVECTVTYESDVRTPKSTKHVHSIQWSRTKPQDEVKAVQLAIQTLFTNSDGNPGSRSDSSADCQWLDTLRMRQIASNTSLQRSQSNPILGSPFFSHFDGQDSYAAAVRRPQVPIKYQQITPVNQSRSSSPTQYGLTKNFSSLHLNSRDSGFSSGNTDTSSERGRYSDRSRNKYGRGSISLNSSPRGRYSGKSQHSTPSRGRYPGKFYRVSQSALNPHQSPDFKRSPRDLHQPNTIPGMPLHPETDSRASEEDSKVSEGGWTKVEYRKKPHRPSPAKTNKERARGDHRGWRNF
Chain of Serine/threonine-protein kinase B-raf (Homo sapiens) (P15056 whole entry): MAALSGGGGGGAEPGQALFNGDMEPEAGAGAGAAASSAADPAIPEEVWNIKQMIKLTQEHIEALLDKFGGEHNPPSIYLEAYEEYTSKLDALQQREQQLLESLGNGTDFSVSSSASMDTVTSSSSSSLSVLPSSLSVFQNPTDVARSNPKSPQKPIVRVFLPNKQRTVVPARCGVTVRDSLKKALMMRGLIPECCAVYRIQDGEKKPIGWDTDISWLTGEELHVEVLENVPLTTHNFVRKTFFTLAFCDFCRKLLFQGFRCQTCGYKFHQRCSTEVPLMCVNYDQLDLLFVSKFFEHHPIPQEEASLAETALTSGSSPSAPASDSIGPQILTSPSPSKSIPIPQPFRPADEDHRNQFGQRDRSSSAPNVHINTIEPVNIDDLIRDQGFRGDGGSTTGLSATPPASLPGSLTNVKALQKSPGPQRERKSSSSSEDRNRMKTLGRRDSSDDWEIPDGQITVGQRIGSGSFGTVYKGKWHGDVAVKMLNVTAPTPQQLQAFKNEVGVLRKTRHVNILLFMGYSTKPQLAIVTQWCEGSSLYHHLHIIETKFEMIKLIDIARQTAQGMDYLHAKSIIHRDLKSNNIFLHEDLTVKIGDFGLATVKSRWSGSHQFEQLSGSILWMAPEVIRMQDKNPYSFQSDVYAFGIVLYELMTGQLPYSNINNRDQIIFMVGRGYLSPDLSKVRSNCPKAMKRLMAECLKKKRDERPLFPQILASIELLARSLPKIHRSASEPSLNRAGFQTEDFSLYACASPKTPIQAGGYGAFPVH
Chain of eIF-2-alpha kinase GCN2 (Homo sapiens), Q9P2K8 [S808G] (Q9P2K8 whole entry S808G): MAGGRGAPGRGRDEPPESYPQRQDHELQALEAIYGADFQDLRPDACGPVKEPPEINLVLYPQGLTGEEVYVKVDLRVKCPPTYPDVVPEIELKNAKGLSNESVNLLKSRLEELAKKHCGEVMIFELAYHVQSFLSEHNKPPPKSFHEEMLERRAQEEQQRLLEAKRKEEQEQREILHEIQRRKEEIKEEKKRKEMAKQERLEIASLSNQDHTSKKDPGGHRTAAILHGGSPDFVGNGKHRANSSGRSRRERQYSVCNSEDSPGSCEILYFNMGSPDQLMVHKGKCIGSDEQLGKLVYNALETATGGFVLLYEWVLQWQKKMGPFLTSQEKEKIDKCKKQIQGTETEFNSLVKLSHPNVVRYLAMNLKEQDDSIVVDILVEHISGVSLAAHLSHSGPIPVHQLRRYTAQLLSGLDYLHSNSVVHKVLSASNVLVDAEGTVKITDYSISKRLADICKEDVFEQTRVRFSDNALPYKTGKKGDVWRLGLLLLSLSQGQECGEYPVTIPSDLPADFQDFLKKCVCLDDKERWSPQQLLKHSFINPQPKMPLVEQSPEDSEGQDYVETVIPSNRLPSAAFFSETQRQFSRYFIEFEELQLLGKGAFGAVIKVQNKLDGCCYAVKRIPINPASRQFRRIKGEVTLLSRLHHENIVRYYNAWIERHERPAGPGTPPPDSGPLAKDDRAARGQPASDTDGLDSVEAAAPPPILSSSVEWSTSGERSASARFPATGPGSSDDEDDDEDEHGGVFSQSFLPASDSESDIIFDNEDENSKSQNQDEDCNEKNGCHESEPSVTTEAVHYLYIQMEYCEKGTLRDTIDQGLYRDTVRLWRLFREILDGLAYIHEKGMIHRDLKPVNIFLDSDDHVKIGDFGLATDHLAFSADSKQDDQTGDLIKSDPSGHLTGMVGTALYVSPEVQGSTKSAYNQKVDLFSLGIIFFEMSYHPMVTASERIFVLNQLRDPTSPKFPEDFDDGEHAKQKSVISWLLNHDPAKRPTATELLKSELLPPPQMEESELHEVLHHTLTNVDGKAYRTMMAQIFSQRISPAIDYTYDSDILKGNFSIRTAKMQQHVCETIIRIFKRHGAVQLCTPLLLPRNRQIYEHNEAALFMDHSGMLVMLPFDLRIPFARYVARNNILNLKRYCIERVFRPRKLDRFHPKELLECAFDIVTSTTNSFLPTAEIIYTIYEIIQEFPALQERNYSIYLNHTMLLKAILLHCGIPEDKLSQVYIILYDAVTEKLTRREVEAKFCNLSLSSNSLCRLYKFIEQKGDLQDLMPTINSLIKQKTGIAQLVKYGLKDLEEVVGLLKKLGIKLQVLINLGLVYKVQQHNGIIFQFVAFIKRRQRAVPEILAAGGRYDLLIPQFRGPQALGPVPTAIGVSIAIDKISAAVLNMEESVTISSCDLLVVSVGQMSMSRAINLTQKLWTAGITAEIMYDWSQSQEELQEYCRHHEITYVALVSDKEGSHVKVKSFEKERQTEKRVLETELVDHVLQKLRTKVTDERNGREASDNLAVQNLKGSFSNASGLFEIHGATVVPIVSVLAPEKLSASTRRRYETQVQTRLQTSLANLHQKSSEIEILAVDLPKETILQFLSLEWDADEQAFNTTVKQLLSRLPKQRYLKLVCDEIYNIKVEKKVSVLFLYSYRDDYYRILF
Chain of 5-hydroxytryptamine receptor 7 (Homo sapiens) (P34969 whole entry): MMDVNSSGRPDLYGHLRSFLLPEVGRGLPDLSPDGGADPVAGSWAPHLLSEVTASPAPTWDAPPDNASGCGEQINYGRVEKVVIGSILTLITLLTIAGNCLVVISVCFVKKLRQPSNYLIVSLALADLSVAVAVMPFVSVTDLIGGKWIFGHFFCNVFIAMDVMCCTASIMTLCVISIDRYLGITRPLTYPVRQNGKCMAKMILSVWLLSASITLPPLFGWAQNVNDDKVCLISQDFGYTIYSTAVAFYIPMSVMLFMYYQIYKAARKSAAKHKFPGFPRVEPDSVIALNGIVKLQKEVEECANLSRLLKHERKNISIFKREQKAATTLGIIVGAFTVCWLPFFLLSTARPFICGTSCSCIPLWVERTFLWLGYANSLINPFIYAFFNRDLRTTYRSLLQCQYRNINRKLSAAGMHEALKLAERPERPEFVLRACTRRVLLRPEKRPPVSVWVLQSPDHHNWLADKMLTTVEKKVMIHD
Chain of Serine/threonine-protein kinase Nek3 (Homo sapiens) (P51956 whole entry): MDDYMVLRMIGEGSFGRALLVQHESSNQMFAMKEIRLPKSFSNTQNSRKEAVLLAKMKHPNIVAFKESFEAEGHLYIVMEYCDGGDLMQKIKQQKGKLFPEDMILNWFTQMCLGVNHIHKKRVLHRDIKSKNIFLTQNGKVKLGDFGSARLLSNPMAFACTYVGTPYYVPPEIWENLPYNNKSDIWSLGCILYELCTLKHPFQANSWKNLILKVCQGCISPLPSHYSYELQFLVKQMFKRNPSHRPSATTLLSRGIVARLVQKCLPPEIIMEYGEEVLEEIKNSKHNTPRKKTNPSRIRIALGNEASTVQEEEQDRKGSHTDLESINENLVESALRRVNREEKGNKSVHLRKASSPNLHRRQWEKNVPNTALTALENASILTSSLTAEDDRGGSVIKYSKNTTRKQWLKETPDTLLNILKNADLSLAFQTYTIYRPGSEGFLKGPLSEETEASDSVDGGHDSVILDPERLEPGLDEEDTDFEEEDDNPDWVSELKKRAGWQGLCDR
Chain of Mitogen-activated protein kinase 13 (Homo sapiens) (O15264 whole entry, canonical isoform): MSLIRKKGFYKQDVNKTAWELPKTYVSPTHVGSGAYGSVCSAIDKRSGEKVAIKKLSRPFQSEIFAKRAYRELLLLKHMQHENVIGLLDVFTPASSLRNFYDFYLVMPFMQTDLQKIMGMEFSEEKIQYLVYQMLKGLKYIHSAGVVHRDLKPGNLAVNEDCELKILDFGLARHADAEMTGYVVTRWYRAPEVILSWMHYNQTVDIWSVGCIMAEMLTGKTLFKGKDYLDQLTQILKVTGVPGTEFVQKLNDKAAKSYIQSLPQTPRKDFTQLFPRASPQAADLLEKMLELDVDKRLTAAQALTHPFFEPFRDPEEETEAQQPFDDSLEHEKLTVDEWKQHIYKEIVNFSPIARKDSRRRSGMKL

Row | SMILES | Ki [1] | pKi [1] | inhibition [2] | inhibition [3] | residual activity [4] | residual activity [5] | residual activity [6] | residual activity [7] | residual activity [8] | residual activity [9] | residual activity [10] | residual activity [11] | residual activity [12] | residual activity [13] | residual activity [14] | residual activity [15] | residual activity [16] | residual activity [17] | residual activity [18] | residual activity [19] | also measured
1 | CNC(=O)Nc1ccc2c(c1)[C@@]1(CC2)OC(=O)N(CC(=O)N(Cc2ccc(F)cc2)[C@@H](C)C(F)(F)F)C1=O [A-486] | 2580 nM | 5.6 | 6% | -1% | 73% | 100% | 100% | 99% | 100% | 97% | 78% | 100% | 100% | 88% | 100% | 100% | 100% | 100% | 100% | 91% | residual activity [20]: 69%; residual activity [21]: 70%; residual activity [22]: 100%; residual activity [23]: 92%; residual activity [24]: 89%; residual activity [25]: 94%; residual activity [26]: 76%; residual activity [27]: 85%; residual activity [28]: 69%; residual activity [29]: 100%; residual activity [30]: 77%; residual activity [31]: 97%; residual activity [32]: 64%; residual activity [33]: 88%; residual activity [34]: 72%; residual activity [35]: 72%; residual activity [36]: 88%; residual activity [37]: 84%; residual activity [38]: 93%; inhibition [39]: 10.2%
2 | CNC(=O)Nc1ccc2c(c1)CC[C@@]21OC(=O)N(CC(=O)N(Cc2ccc(F)cc2)[C@@H](C)C(F)(F)F)C1=O [A-485] | 1110 nM | 5.96 | 16% | 7% | 87% | 88% | 94% | 72% | 93% | 84% | 90% | 96% | 75% | 100% | 100% | 94% | 92% | 92% | 95% | 73% | residual activity [20]: 70%; residual activity [21]: 67%; residual activity [22]: 100%; residual activity [23]: 84%; residual activity [24]: 83%; residual activity [25]: 67%; residual activity [26]: 82%; residual activity [27]: 90%; residual activity [28]: 58%; residual activity [29]: 91%; residual activity [30]: 82%; residual activity [31]: 83%; residual activity [32]: 95%; residual activity [33]: 72%; residual activity [34]: 63%; residual activity [35]: 68%; residual activity [36]: 88%; residual activity [37]: 83%; residual activity [38]: 82%; inhibition [39]: 26.5%

Reference: ChEMBL document CHEMBL4507259 (2021)
